# Test results reported in patent US20210207081A1, “MATURE AIRWAY ORGANOIDS, METHODS OF MAKING AND USES THEREOF” (priority 2018, published 2021).
# Test system: H7N9/Ah virus
# Format: cell-based, Influenza A virus A/Anhui/1/2013(H7N9)
smiles,measurement,value
NCCc1ccc(S(=O)(=O)F)cc1 [AEBSF],replication of H7N9/Ah virus,significantly restricted the active replication of H7N9/Ah virus
